Key:
Type in all cases: functional, cell-based
[1] = tested on: HCT-116; experiment: Cytotoxicity in human HCT116 cells assessed as reduction in cell viability incubated for 72 hrs by MTT assay; details: HCT-116, 72 h
[2] = tested on: MDA-MB-231; experiment: Cytotoxicity in human MDA-MB-231 cells assessed as reduction in cell viability incubated for 72 hrs by MTT assay; details: MDA-MB-231, 72 h
[3] = tested on: NCI-H460; experiment: Cytotoxicity in human NCI-H460 cells assessed as reduction in cell viability incubated for 72 hrs by MTT assay; details: NCI-H460, 72 h
[4] = tested on: PC-3; experiment: Cytotoxicity in human PC3 cells assessed as reduction in cell viability incubated for 72 hrs by MTT assay; details: PC-3, 72 h
[5] = tested on: SNB-19; experiment: Cytotoxicity in human SNB19 cells assessed as reduction in cell viability incubated for 72 hrs by MTT assay; details: SNB-19, 72 h
[6] = tested on: MDA-MB-435; experiment: Cytotoxicity in human MDA-MB-435 cells assessed as reduction in cell viability incubated for 72 hrs by MTT assay; details: MDA-MB-435, 72 h

Structure (SMILES): CC1=C[C@@]2(C)C(=C(C)[C@H]3[C@@H]4C[C@H](C)C[C@H](C)[C@H]4[C@@H]4Oc5ccc(cc5)C[C@@]5(O)C=C(C(=O)N5)C(=O)[C@@H]2[C@@H]43)[C@H]1C
- IC50 [1]: 4.5 µM
- IC50 [2]: 6.6 µM
- IC50 [3]: 13 µM
- IC50 [4]: 20 µM
- IC50 [5]: 18 µM
- IC50 [6]: 12 µM

Structure (SMILES): COc1cccc2c1C(=O)c1c(O)c3c(c(O)c1C2=O)C[C@@](O)(C(=O)CO)C[C@@H]3O[C@H]1C[C@H](N)[C@@H](O)[C@H](C)O1 [EPIRUBICIN]
- IC50 [5]: 2.3 µM

Structure (SMILES): CO[C@@H]1/C2=C(\O)[C@H]3[C@H]4[C@H](Oc5ccc(cc5)C[C@]1(O)NC2=O)[C@H]1[C@@H](C[C@H](C)C[C@@H]1C)[C@@H]4C(C)=C1[C@@H](C)C(C)=C[C@@]13C
- IC50 [1]: 5.5 µM
- IC50 [2]: 5.9 µM
- IC50 [3]: 4.4 µM
- IC50 [4]: 5.7 µM
- IC50 [5]: 6.8 µM
- IC50 [6]: 4.9 µM

Structure (SMILES): CC1=C[C@@]2(C)C(=C(C)[C@H]3[C@@H]4C[C@H](C)C[C@H](C)[C@H]4[C@H]4Oc5ccc(cc5)C[C@]5(O)NC(=O)[C@]6(O[C@H]65)C(=O)[C@H]2[C@@H]43)[C@H]1C
- IC50 [1]: 15 µM
- IC50 [2]: 12 µM
- IC50 [3]: 12 µM
- IC50 [4]: 22 µM
- IC50 [5]: 29 µM
- IC50 [6]: 16 µM

Structure (SMILES): CC1=C[C@@]2(C)C(=C(C)[C@H]3[C@@H]4C[C@H](C)C[C@H](C)[C@H]4[C@H]4Oc5ccc(cc5)C[C@]5(O)NC(=O)[C@]6(O[C@H]65)C(=O)[C@@H]2[C@@H]43)[C@H]1C
- IC50 [1]: 4.2 µM
- IC50 [2]: 5.1 µM
- IC50 [3]: 4.4 µM
- IC50 [4]: 7.5 µM
- IC50 [5]: 7.8 µM
- IC50 [6]: 7.8 µM

Structure (SMILES): CC1=C[C@@]2(C)C(=C(C)[C@H]3[C@@H]4C[C@H](C)C[C@H](C)[C@H]4[C@H]4Oc5ccc(cc5)C[C@@H]5C(=O)NC(=O)[C@H]5C(=O)[C@@H]2[C@@H]43)[C@H]1C
- IC50 [1]: 25 µM
- IC50 [2]: 30 µM
- IC50 [3]: 28 µM
- IC50 [4]: > 50 µM
- IC50 [5]: > 50 µM
- IC50 [6]: 26 µM

Source: ChEMBL document CHEMBL4339247, “Ascomylactams A-C, Cytotoxic 12- or 13-Membered-Ring Macrocyclic Alkaloids Isolated from the Mangrove Endophytic Fungus Didymella sp. CYSK-4, and Structure Revisions of Phomapyrrolidones A and C” (J Nat Prod, 2019)
